The values below come from patent US8778929B2, “Substituted heteroaryl inhibitors of B-RAF” (Boehringer Ingelheim International GmbH, priority 2008, dated 2014).

The target in this test is B-Raf (V600E)-kinase (Homo sapiens, UniProt P15056, V600E). As to the kind of experiment: Kinase test B-Raf (V600E). Format: biochemical. Conditions: 100% = no inhibition, 0% = total inhibition, read-out: % CTL (residual activity of the enzyme relative to DMSO control); for remaining activity at 2 µM: compound concentration 2 μM. Here is the method:
In a dilution series 10 μL of test substance solution are placed in a multiwell plate. The dilution series is selected so that generally a range of concentrations of 2 μM to 0.119 nM or 0.017 nM is covered. If necessary the initial concentration of 2 μM is changed to 50 μM, 10 μM or 0.4 μM or 0.2857 μM and further dilution is carried out accordingly. The final concentration of DMSO is 5%. 10 μL of the B-Raf (V600E)-kinase solution are pipetted in (containing 0.5 ng B-Raf (V600E)-kinase in 20 mM Tris-HCl pH 7.5, 0.1 mM EDTA, 0.1 mM EGTA, 0.286 mM sodium orthovanadate, 10% glycerol, 1 mg/mL bovine serum albumin, 1 mM dithiothreitol) and the mixture is incubated for 1 h at RT under with shaking The kinase reaction is started by the addition of 20 μL ATP solution [final concentration: 250 μM ATP, 30 mM Tris-HCl pH 7.5, 0.02% Brij, 0.2 mM sodium orthovanadate, 10 mM magnesium acetate, 0.1 mM EGTA, phosphatase cocktail (Sigma, # P2850, dilution recommended by the manufacturer), 0.1 mM EGTA] and 10 μL MEK1 solution [containing 50 ng biotinylated MEK1 (prepared from purified MEK1 according to standard procedure, e.g. with EZ-Link Sulpho-NHS-LC-Biotin reagent, Pierce, # 21335) and carried out for 60 min at RT with constant shaking. The reaction is stopped by the addition of 12 μL of a 100 mM EDTA solution and incubation is continued for a further 5 min. 55 μL of the reaction solution are transferred into a streptavidin-coated plate (e.g. Streptawell HighBond, Roche, #11989685001) and shaken gently for 1 h at RT, in order to bind biotinylated MEK1 to the plate. After elimination of the liquid the plate is washed five times with 200 μL of 1×PBS and 100 μL solution of primary antibody plus europium-labelled secondary antibody [Anti Phospho-MEK (Ser217/221), Cell Signaling, # 9121 and Eu-N1 labeled goat-anti-rabbit antibody, Perkin Elmer, #AD0105], the primary antibody is diluted 1:2000 and the secondary antibody is diluted to 0.4-0.5 μg/mL in Delfia Assay Buffer (Perkin Elmer, #1244-111). After 1 h shaking at RT the solution is poured away and washed five times with 200 μL Delfia Wash Buffer (Perkin Elmer, #4010-0010/#1244-114). After the addition of 200 μL Enhancement Solution (Perkin Elmer, #4001-0010/#1244-105) the mixture is shaken for 10 min at RT and then measured in a Wallac Victor using the program “Delfia Time Resolved Fluorescence (Europium)”. IC50 values are obtained from these dosage-activity curves using a software program (GraphPadPrizm).
A value of 100% indicates no inhibition while a value of 0% indicates total inhibition. The % CTL values denote the residual activity of the enzyme after the addition of the inhibitory compound in the solvent DMSO in relation to the enzyme activity in the solvent DMSO without the addition of a compound (control). The values were determined using the B-Raf(V600E)-kinase test described above.

Chain of B-Raf (V600E)-kinase (P15056 whole entry V600E): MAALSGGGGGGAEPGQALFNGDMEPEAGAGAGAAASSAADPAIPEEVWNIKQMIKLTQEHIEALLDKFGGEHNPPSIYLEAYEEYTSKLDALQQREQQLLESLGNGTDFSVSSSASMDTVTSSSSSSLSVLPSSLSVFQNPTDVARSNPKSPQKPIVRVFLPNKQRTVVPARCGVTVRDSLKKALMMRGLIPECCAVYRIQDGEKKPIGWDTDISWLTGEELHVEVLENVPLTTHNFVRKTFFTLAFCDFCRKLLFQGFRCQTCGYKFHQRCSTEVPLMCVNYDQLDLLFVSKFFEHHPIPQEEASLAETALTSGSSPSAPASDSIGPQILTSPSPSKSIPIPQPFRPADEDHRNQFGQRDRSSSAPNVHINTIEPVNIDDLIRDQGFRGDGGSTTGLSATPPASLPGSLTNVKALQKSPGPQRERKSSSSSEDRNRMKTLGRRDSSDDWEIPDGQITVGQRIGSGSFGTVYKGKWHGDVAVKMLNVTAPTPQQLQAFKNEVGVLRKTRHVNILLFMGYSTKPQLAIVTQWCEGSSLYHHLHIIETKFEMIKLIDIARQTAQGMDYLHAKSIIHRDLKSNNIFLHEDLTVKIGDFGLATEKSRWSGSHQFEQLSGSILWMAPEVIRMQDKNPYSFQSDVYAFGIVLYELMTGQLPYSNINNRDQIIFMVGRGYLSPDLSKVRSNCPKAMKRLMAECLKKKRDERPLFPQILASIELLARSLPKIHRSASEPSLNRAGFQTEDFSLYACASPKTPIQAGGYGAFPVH

Take `Cc1ncc(C(=O)Nc2cc(C(C)(C)C)on2)cc1-n1cc(-c2cnn(C)c2C)nn1` [Example I-1]: the remaining activity at 2 µM was 7.6%.

For the compound `Cc1ncc(C(=O)Nc2cc(C(F)(F)F)ccn2)cc1-n1cc(-c2cnn(C)c2C)nn1` [Example I-2], the remaining activity at 2 µM amounted to 8%.

For `Cc1ncc(C(=O)Nc2cc(N3CCN(C)CC3)cc(C(F)(F)F)c2)cc1-n1cc(-c2cnn(C)c2C)nn1` [Example I-3], the remaining activity at 2 µM is 8.7%.

Regarding `Cc1ncc(C(=O)Nc2cc(C(C)(C)C)nn2C)cc1-n1cc(-c2cnn(C)c2C)nn1` [Example I-4], the remaining activity at 2 µM turned out to be 1.7%.

For the compound `Cc1ncc(C(=O)Nc2cc(N3CCN(C)CC3)c(C)c(C(F)(F)F)c2)cc1-n1cc(-c2cnn(C)c2C)nn1` [Example I-6], the remaining activity at 2 µM stood at 2.1%.

Turning to `COc1ccc(NC(=O)c2cnc(C)c(-n3cc(-c4cnn(C)c4C)nn3)c2)cc1C(F)(F)F` [Example I-7], the remaining activity at 2 µM was 2%.

As to `Cc1ccc(C(F)(F)F)cc1NC(=O)c1cnc(C)c(-n2cc(-c3cnn(C)c3C)nn2)c1` [Example I-8], the remaining activity at 2 µM turned out to be 1.6%.

Consider `COc1c(NC(=O)c2cnc(C)c(-n3cc(-c4cnn(C)c4C)nn3)c2)cc(C(C)(C)C)cc1NS(C)(=O)=O` [Example I-9], for which the remaining activity at 2 µM worked out at 1.4%.

In the case of `Cc1ncc(C(=O)Nc2cc(N3CCN(C)CC3)c(F)c(C(F)(F)F)c2)cc1-n1cc(-c2cnn(C)c2C)nn1` [Example I-10], the remaining activity at 2 µM came to 1.1%.

In the case of `Cc1ncc(C(=O)Nc2cc(CN3CCCC3)cc(C(F)(F)F)c2)cc1-n1cc(-c2cnn(C)c2C)nn1` [Example I-12], the remaining activity at 2 µM came out at 1.8%.

For `COc1c(CNC(C)C)cc(C(F)(F)F)cc1NC(=O)c1cnc(C)c(-n2cc(-c3cnn(C)c3C)nn2)c1` [Example I-13], the remaining activity at 2 µM is 2.3%.

As to `CC(=O)Nc1ncc(-c2cn(-c3cc(C(=O)Nc4cc(C(F)(F)F)ccn4)cnc3C)nn2)s1` [Example I-14], the remaining activity at 2 µM came out at 1.4%.

On to `CC(=O)Nc1ncc(-c2cn(-c3cc(C(=O)Nc4cc(CN5CCCC5)cc(C(F)(F)F)c4)cnc3C)nn2)s1` [Example I-15], for which the remaining activity at 2 µM came out at 1.4%.

`CC(=O)Nc1ncc(-c2cn(-c3cc(C(=O)Nc4cc(N5CCN(C)CC5)cc(C(F)(F)F)c4)cnc3C)nn2)s1` [Example I-16]: the remaining activity at 0.29 µM (measurement at 0.29 μM (*)) stood at 2%.

With `Cc1ncc(C(=O)Nc2cc(N3CCN(C)CC3)cc(C(F)(F)F)c2)cc1-n1cc(-c2cncnc2)nn1` [Example I-18], the remaining activity at 2 µM was determined as 2.4%.

On to `CCN1CCN(c2cc(NC(=O)c3cnc(C)c(-n4cc(-c5cncnc5)nn4)c3)cc(C(F)(F)F)c2C)CC1` [Example I-20], for which the remaining activity at 2 µM stood at 1.9%.

As to `Cc1ncc(C(=O)Nc2cc(C(C)(C)C)on2)cc1-n1cc(-c2cncnc2)nn1` [Example I-21], the remaining activity at 2 µM is 2.2%.

In the case of `Cc1ncc(C(=O)Nc2cc(C(F)(F)F)ccn2)cc1-n1cc(-c2cncnc2)nn1` [Example I-23], the remaining activity at 2 µM was 5.9%.

In the case of `COc1cncc(-c2cn(-c3cc(C(=O)Nc4cc(N5CCN(C)CC5)cc(C(F)(F)F)c4)cnc3C)nn2)c1` [Example I-24], the remaining activity at 2 µM worked out at 1%.

With `COc1cncc(-c2cn(-c3cc(C(=O)Nc4cc(N5CCN(C)CC5)c(F)c(C(F)(F)F)c4)cnc3C)nn2)c1` [Example I-25], the remaining activity at 2 µM was determined as 2.2%.

In the case of `CCN1CCN(c2cc(NC(=O)c3cnc(C)c(-n4cc(-c5cncc(OC)c5)nn4)c3)cc(C(F)(F)F)c2C)CC1` [Example I-26], the remaining activity at 2 µM was determined as 1.4%.

For the compound `COc1cncc(-c2cn(-c3cc(C(=O)Nc4cc(C(C)(C)C)on4)cnc3C)nn2)c1` [Example I-27], the remaining activity at 2 µM was 3.3%.

Consider `COc1cncc(-c2cn(-c3cc(C(=O)Nc4cc(C(F)(F)F)ccn4)cnc3C)nn2)c1` [Example I-29], for which the remaining activity at 2 µM came to 2.5%.

Regarding `Cc1cn2c(-c3cn(-c4cc(C(=O)Nc5cc(C(C)(C)C)nn5C)cnc4C)nn3)cnc2cn1` [Example I-30], the remaining activity at 2 µM was found to be 6.9%.

For the compound `Cc1cn2c(-c3cn(-c4cc(C(=O)Nc5cc(C(F)(F)F)ccn5)cnc4C)nn3)cnc2cn1` [Example I-32], the remaining activity at 2 µM came out at 1.5%.

For `COc1ccc(NC(=O)c2cnc(C)c(-n3cc(-c4cnc5cnc(C)cn45)nn3)c2)cc1C(F)(F)F` [Example I-33], the remaining activity at 2 µM was determined as 1.4%.

As for `Cc1ncc(C(=O)Nc2cc(C(C)(C)C)on2)cc1-n1cc(-c2cncc(Br)c2)nn1` [Example I-34], the remaining activity at 2 µM was found to be 1.5%.

Take `Cc1ncc(C(=O)Nc2cc(C(C)(C)C)on2)cc1-n1cc(-c2cncc(N3CCOCC3)c2)nn1` [Example I-35]: the remaining activity at 2 µM came out at 1.7%.

Take `Cc1ncc(C(=O)Nc2cc(C(C)(C)C)on2)cc1-n1cc(-c2cncc(N3CCCOCC3)c2)nn1` [Example I-36]: the remaining activity at 2 µM was 1.8%.

For the compound `Cc1ncc(C(=O)Nc2cc(C(C)(C)C)on2)cc1-n1cc(-c2cncc(NC3CCOC3)c2)nn1` (stereo not shown) [Example I-37], the remaining activity at 2 µM was determined as 2.5%.

With `Cc1ncc(C(=O)Nc2cc(C(C)(C)C)on2)cc1-n1cc(-c2cncc(N(C)C3CCOC3)c2)nn1` (stereo not shown) [Example I-38], the remaining activity at 2 µM was determined as 2.4%.

`Cc1ncc(C(=O)Nc2cc(C(C)(C)C)on2)cc1-n1cc(-c2cncc(N3CCN(C)CC3)c2)nn1` [Example I-39]: the remaining activity at 2 µM amounted to 1.5%.

Consider `Cc1ncc(C(=O)Nc2cc(C(C)(C)C)on2)cc1-n1cc(-c2cncc(NC3CCOCC3)c2)nn1` [Example I-40], for which the remaining activity at 2 µM was found to be 1.4%.

In the case of `COCCNc1cncc(-c2cn(-c3cc(C(=O)Nc4cc(C(C)(C)C)on4)cnc3C)nn2)c1` [Example I-41], the remaining activity at 2 µM was determined as 1.1%.

As for `Cc1ncc(C(=O)Nc2cc(C(C)(C)C)no2)cc1-n1cc(-c2cnn(C)c2C)nn1` [Example I-42], the remaining activity at 2 µM came to 1.6%.

In the case of `CCN1CCN(c2cc(NC(=O)c3cnc(C)c(-n4cc(-c5cncs5)nn4)c3)cc(C(F)(F)F)c2C)CC1` [Example I-43], the remaining activity at 2 µM is 1.1%.

`Cc1cn2c(-c3cn(-c4cc(C(=O)Nc5cc(N6CCN(C)CC6)c(C)c(C(F)(F)F)c5)cnc4C)nn3)cnc2cn1` [Example I-44]: the remaining activity at 2 µM amounted to 3.3%.

As to `Cc1cn2c(-c3cn(-c4cc(C(=O)Nc5cc(N6CCN(C)CC6)cc(C(F)(F)F)c5)cnc4C)nn3)cnc2cn1` [Example I-45], the remaining activity at 2 µM is 3.2%.

`CCN1CCN(c2cc(NC(=O)c3cnc(C)c(-n4cc(-c5cccnc5)nn4)c3)cc(C(F)(F)F)c2C)CC1` [Example I-46]: the remaining activity at 2 µM is 6.1%.

Regarding `CCN1CCN(c2cc(NC(=O)c3cnc(C)c(-n4cc(-c5ccc(NC(C)=O)nc5)nn4)c3)cc(C(F)(F)F)c2C)CC1` [Example I-47], the remaining activity at 2 µM amounted to 2%.

`CCN1CCN(c2cc(NC(=O)c3cnc(C)c(-n4cc(-c5cnc(NC(C)=O)s5)nn4)c3)cc(C(F)(F)F)c2C)CC1` [Example I-48]: the remaining activity at 2 µM was determined as 1.7%.

As to `CCN1CCN(c2cc(NC(=O)c3cnc(C)c(-n4cc(-c5cncc(C#N)c5)nn4)c3)cc(C(F)(F)F)c2C)CC1` [Example I-49], the remaining activity at 2 µM amounted to 6.2%.

As to `COc1c(CNC(C)C)cc(NC(=O)c2cnc(C)c(-n3cc(-c4cnc5cnc(C)cn45)nn3)c2)cc1C(F)(F)F` [Example I-50], the remaining activity at 2 µM was determined as 2.2%.
